How the values were obtained:
germinal centers = test: Immunohistochemistry of mouse spleen cryosections (Bcl-6 germinal centers, CD3 T cells), scored by pathologist; type: in vivo
Excerpt: (§1) Female C57BL/6 mice (Charles River Laboratories, Bedford, Mass.) were used in these studies and treated with a beta-carboline, N-(6-chloro-7-methoxy-9H-beta-carbolin-8-yl)-2-methyl-nicotinamide (ML120B) following three different treatment regimens, A, B, and C. After the treatment, animals were euthanized and tissues were collected and frozen. Germinal centers were identified by immunohistochemistry (IHC) of cryosections (6 μm) using an antibody to mouse Bcl-6. T cells also were identified by IHC of serial cryosections, using an antibody to mouse CD3. The size and/or frequency of germinal centers and T cells were scored by a board-certified anatomic pathologist, using a 0 (low) to 4 (high) scale.
(§2) Mice were given a single oral dose of ML120B as indicated (n=4/group) for 6 hours. The level of mouse mu heavy chain germline transcript was measured in RNA isolated from serial cryosections by qRT-PCR.
(§3) Mice were given a single oral dose of ML120B as indicated (n=4/group) for 18 hours. The level of mouse mu heavy chain germline transcript was measured in RNA isolated from serial cryosections by qRT-PCR.
Mice were given twice daily oral dose of ML120B by gavage, as indicated (n=4/group) for four days. The level of mouse mu, gamma 3 and gamma 1 heavy chain germline transcript, AICDA transcript, gamma 1 & 2 circle transcript and 18S rRNA were measured in RNA isolated from serial cryosections by qRT-PCR. […] Germinal centers expressing Bcl-6 decreased 10-fold at 300 mg/kg (FIG. 3). Germline transcripts mu, gamma 3 and gamma 1 decreased from 10-1000-fold at 300 mg/kg (FIG. 3). Transcripts encoding AICDA decreased 100-1000-fold at 300 mg/kg (FIG. 3). Circle transcript gamma 1&2 decreased 10-fold at 100 mg/kg (FIG. 3).

[1] = test system: switch transcripts in mouse spleens; test: qRT-PCR of switch transcripts in mouse spleens; type: in vivo; settings: spleen
Excerpt: as §1
Total ribonucleic acid (RNA) was isolated from 10 spleen cryosections, each […], using the RNEASY® Universal Tissue 8000 Kit (QIAGEN Inc., Valencia, Calif.) on a BIOROBOT® 8000 Workstation (QIAGEN INC., Valencia, Calif.), and deoxyribonucleic acidase (DNASE)-treated according to the manufacturer's protocol. The purity and yield of the RNA were assessed via spectrophotometry from 220 to 750 nm using the NANODROP® ND-1000 (NANODROP Technologies, Wilmington, Del.). The integrity of the RNA was measured with the RNA 6000 NANO LABCHIP® Kit (AGILENT Technologies, Foster City, Calif.) on an AGILENT 2100 Bioanalyzer (AGILENT Technologies, Foster City, Calif.) and calculated using the RNA integrity number (RIN) algorithm (Schroeder et al. (2006) BMC Mol. Biol. 7:3). Deoxyribonucleic acidase-treated RNA was extracted from the samples and stored at −80° C. First strand complementary deoxyribonucleic acid (cDNA) synthesis was performed using a TAQMAN® Gold RT Master Mix (Applied Biosystems, Foster City, Calif.) according to the manufacturer's protocol, except that both oligothymidylic (oligo[dT]) and random hexamers were used for priming. The quality of synthesized cDNA was assessed by generating expression profiles of endogenous reference genes with a real-time polymerase chain reaction (PCR) system, the ABI PRISM® 7900HT Sequence Detection System (Applied Biosystems, Foster City, Calif.). Complementary deoxyribonucleic acid samples were stored at −20° C.
Sequences for all biomarkers (Table 1) were derived from mouse and human deoxyribonucleic acid (DNA) sequence (GENBANK® database [online] maintained by National Center for Biotechnology Information, Bethesda, Md.). Quantitative reverse-transcriptase polymerase chain reaction assays were performed on an ABI PRISM® 7900HT Sequence Detection System (Applied Biosystems, Inc. (Foster City, Calif.) using a SYBR-green detection system (Qiagen Inc., Valencia, Calif.). All quantitative assays were run using universal thermal cycling parameters: hold at 95° C. for 2 minutes to activate the DNA polymerase, then run 40 three-part cycles (95° C. for 20 seconds, 58° C. for 20 seconds, and 76° C. for 20 seconds). Data were analyzed using sequence detection system (SDS) software, Version 1.7 (Applied Biosystems, Inc. (Foster City, Calif.). […] From each amplification plot, a threshold cycle (Ct) value was calculated. […] The Ct values were exported to an EXCEL® (MICROSOFT Corp., Redmond, Wash.) spreadsheet and relative expression (x) was calculated as shown in equation 2.
as §2, §3
Mice were given twice daily oral dose of ML120B by gavage, as indicated (n=4/group) for four days. The level of mouse mu, gamma 3 and gamma 1 heavy chain germline transcript, AICDA transcript, gamma 1 & 2 circle transcript and 18S rRNA were measured in RNA isolated from serial cryosections by qRT-PCR. […]

[2] = single oral dose 300 mg/kg, 18 hours
[3] = single oral dose, within first 6 hours
[4] = twice daily oral 300 mg/kg, four days

SMILES: COc1c(Cl)cc2c([nH]c3cnccc32)c1NC(=O)c1cccnc1C [ML120B, N-(6-chloro-7-methoxy-9H-beta-carbolin-8-yl)-2-methyl-nicotinamide]
- reduction in germinal centers (germinal centers; [2]): 10 fold
- frequency of T cells (germinal centers; single oral dose, 6 hours): remained unchanged
- frequency of T cells (germinal centers; single oral dose, 18 hours): remained unchanged
- decrease in frequency of germinal centers (germinal centers; [3]): 50%
- decrease in germinal centers expressing Bcl-6 (germinal centers; [4]): 10 fold
- reduction in mu germline transcripts [1, 2]: 1000 fold
- level of 18S rRNA ([1]; single oral dose, 18 hours): remained unchanged
- decrease in level of mu germline transcripts [1, 3]: 50%
- decrease in circle transcript gamma 1&2 ([1]; twice daily oral 100 mg/kg, four days): 10 fold
- decrease in germline transcripts mu, gamma 3 and gamma 1 [1, 4]: 10-1000 fold
- decrease in transcripts encoding AICDA [1, 4]: 100-1000 fold
- level of 18S rRNA ([1]; twice daily oral, four days): remained unchanged

Reference: patent US20110111417A1, “METHODS AND KITS FOR MONITORING THE EFFECTS OF IMMUNOMODULATORS ON ADAPTIVE IMMUNITY” (priority 2008, published 2011)
